For one assay, the system named is estradiol biosynthesis. Briefly: In vivo inhibiting activity on estrogen production in rat (PMSG-primed, ovarian estradiol by RIA). Conditions: po, per os, 3 hours after administration, read-out: inhibition on estradiol biosynthesis with respect to the control. The protocol:
(b) In vivo inhibiting activity on estrogen production in rat:
PMSG (pregnant mare serum gonadotropin) (100 IU/rat) was subcutaneously injected to an immature female Wister rat weighing 60 g. After 72 hours from the injection, a suspension of a test compound in 0.5 ml of 20% polyethylene glycol aqueous solution was given to the rat per os. A 20% polyethylene glycol aqueous solution was administered to a control group. After 3 hours from the administration of the drug or placebo, the rat was decapitated and bled out, and the ovary was removed. The estradiol concentration in the ovary was measured by RIA.

For assay [1], the target named is T1, aromatase (Homo sapiens, UniProt P11511).
T1 construct: in the microsome of a human placenta; from tissue; host or cells: human placenta microsomes
T1 sequence (P11511 1-503): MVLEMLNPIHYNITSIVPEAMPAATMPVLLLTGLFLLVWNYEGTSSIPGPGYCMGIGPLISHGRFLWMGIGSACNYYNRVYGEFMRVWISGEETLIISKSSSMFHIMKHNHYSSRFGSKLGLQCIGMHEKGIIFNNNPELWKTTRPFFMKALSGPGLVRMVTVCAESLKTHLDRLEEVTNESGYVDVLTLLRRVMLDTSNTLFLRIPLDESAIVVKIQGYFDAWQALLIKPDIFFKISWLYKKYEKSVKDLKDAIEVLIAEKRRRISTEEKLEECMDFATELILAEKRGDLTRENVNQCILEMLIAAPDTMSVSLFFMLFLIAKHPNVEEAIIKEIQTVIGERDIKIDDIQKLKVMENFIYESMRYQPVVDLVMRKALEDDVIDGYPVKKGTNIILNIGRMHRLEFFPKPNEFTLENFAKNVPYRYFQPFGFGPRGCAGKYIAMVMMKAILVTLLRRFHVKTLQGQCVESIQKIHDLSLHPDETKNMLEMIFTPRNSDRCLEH
Briefly: Inhibiting activity on aromatase of human placenta origin (microsome, 3H2O release from [1,2-3H]androstenedione). Particulars: in vitro, read-out: IC50 for in vitro aromatase inhibition. The format is biochemical. An excerpt: (a) Inhibiting activity on aromatase of human placenta origin:
Measured in accordance with the method described in Endocrine Research, Vol. 16, No. 2, p. 253 (1990).
The inhibiting activity of a test compound was obtained from inhibition of ^3 H2 O released from [1,2-^3 H]androstenedione in the microsome of a human placenta.
IC50 value for in vitro aromatase inhibition in the microsome of a human placenta was obtained according to the method (2)-(a).

The target in assay [2] is T2, aromatase (Rattus norvegicus, UniProt P22443).
T2 sequence (P22443 1-508): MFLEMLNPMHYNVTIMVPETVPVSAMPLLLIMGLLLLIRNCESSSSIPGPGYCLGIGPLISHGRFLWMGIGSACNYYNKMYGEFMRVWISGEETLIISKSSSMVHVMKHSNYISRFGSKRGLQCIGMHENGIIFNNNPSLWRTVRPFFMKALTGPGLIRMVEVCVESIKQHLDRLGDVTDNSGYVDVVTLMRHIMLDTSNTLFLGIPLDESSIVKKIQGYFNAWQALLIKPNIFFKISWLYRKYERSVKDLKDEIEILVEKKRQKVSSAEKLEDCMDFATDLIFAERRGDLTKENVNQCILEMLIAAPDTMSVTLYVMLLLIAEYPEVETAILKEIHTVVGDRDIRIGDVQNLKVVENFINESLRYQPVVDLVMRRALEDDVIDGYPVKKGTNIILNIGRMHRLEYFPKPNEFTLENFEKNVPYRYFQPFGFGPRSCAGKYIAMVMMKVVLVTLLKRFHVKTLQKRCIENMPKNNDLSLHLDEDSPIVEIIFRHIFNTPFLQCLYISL
Briefly: biochemical.
Text: IC50 of a test compound in aromatase inhibition was obtained from inhibition of ^3 H2 O released from [1,2-^3 H]-androstenedione in the microsome of a rat ovary.

In assay [3] the test system is dimethylbenzanthracene (DMBA)-induced tumor. Briefly: Antitumor activity in rat, DMBA-induced breast carcinoma. The format is in vivo. Particulars: orally, daily dose of from 0.04 to 1.0 mg/kg for 2 weeks, rats bearing breast carcinoma. As to the method:
(c) Antitumor activity in rat:
The antitumor activity on breast carcinoma was measured in a dimethylbenzanthracene (DMBA)-induced tumor in a female Sprague-Dawlay rat.
This experimentation is commonly employed as a method for determining an antitumor activity in an animal model of breast carcinoma.

As a reminder, the inhibition is the relative decrease from the control value, in per cent. Broadly, the IC50 is the concentration that gives 50% inhibition. The term EC50 denotes the concentration that produces a half-maximal response. Low values mean greater potency, high ones weaker potency.

Regarding `N#Cc1ccc(N(Cc2cc(F)cc(F)c2)c2cncnc2)cc1` [Example 34, 5-[N-(4-Cyanophenyl)-N-(3,5-difluorobenzyl)amino]pyrimidine], the inhibition at 0.03 mg/kg in the assay on estradiol biosynthesis was determined as 86%. Moreover, the IC50 is 36 pM on aromatase [1] and 220 pM at aromatase [2]. The “suppression or regression of tumors in the mammary gland” value in assay [3] is given as “suppression or regression of tumors”.
With `Fc1ccc(N(Cc2ccccc2)Cc2cccnc2)c(F)c1` [Comparative Compound 2, reference compound], the EC50 at aromatase [2] was less than 50000 pM.

Source of the values: patent US5538976A, “Substituted tertiary amino compound or salt thereof” (Yamanouchi Pharmaceutical Co., Ltd., priority 1992, dated 1996).
